Reference: patent US10548883B2, “Benzotriazole-derived α and β-unsaturated amide compound used as TGF-β RI inhibitor” (GENFLEET THERAPEUTICS (SHANGHAI) INC., priority 2016, dated 2020)

Columns and labels:
[1] = system: NIH/3T3 mouse embryonic cells; test: Test of proliferation inhibition on NIH/3T3 mouse embryonic cells (CellTiter-Glo, with TGF-β1); type: cell-based; conditions: NIH3T3, 0.2 ng/mL TGF-β1, 72 h
Description: Promega's Luminescent Cell Viability Assay (CellTiter-Glo® method, i.e. ATP fluorescence activity detection and analysis), the compound is added to the cell culture plate for incubation. A substrate buffer for detecting intracellular ATP content was added on the day of detection. Slightly shake and centrifuge at 1000 rpm for 1 min. Tested after standing for 10 min. The assay plate was analyzed using Envision multifunctional enzyme marker of PerkinElmer, Inc., and the analysis mode was fluorescence detection, and the data was expressed by the reading of chemiluminescence signal at 400-700 nm.
i) When the cell growth coverage is about 70%, the cell layer was washed with 10 mL of Duchenne phosphate buffer (D-PBS) which is calcium- and magnesium-free, then 2 mL of 0.25% trypsin-EDTA digest was added. The cell culture flask was placed in a CO2 carbon dioxide incubator at 37° C. and incubated for 3-5 min, then 8 mL of complete culture medium containing 2% FBS DMEM cells was added, and the cells were puffed evenly into single cell and counted by Vi-cell cytometer, and NIH/3T3 cell suspension was diluted to 0.375×10^5/mL cells.
ii) 50 μL of 2% DMEM-containing medium was added around the 384-well cell culture plate, then 40 μL of cell suspension was added to the remaining wells to 1500 cells per well. The distribution of the cells was observed under a microscope, and the cell plates were placed in a cell culture incubator with 5% CO2 at 37° C.
iii) Dilution of the compound refers to the preparation of the compound.
iv) A mixture of 2% fetal bovine serum containing 1 ng/mL TGF-β1 in DMEM medium was added manually to the compound intermediate plate, 20 μL per well.
v) The compound intermediate plate was shook slightly for 10 sec at 1000 rpm/min and centrifuge for 10 sec.
vi) 10 uL of the mixed liquid from steps 4 and 5 of each well was transferred to the inoculated cell plate to a final volume of 50 μL by using a Bravo liquid workstation, and the final concentration of TGF-β1 was diluted to 0.2 ng/mL, and centrifuged for 10 sec at 1000 rpm/min. The plates were placed in an incubator with 5% carbon dioxide at 37° C., 5% carbon dioxide for 72 h. The final concentration of the compound is: (unit: μM)
vii) The cell plate containing the compound was cultured in a cell incubator with 5% CO2 at 37° C. for 3 days.
viii) After that, 25 μL of ATP fluorescence activity detection solution was added to each well of the cell plate, then shook gently for about 1 min and centrifuged at 500 rpm/min for about 30 sec, and the reading was performed in an Envision instrument after standing at room temperature for 10 min in the dark.

[2] = system: mouse breast cancer 4T1 cells; test: Tumor cell metastasis inhibition in BALB/c mouse orthotopic transplantation model of mouse breast cancer 4T1 cells; type: in vivo; conditions: 75 mg/kg PO once a day × 32
Description: Fluorescently labeled mouse breast cancer 4T1-Luc cells were expanded in vitro. Before the cells were collected, the mice were anesthetized with intraperitoneal injection of sodium pentobarbital. After anesthetized mice were fixed, the abdominal skin was disinfected with 70% alcohol. 100 uL of phosphate buffer (containing 0.5×10^6 4T1-luc2 cells) was inoculated into the left side of the fourth pair of abdominal mammary fat pads in mice, and the incision was sutured to disinfect the skin. The animals are kept warm with a warm blanket, observed until they wake up and put back in their cages. 0.1 mg/kg buprenorphine for pain relief was subcutaneously injected 30 min before surgery and 6 hours after surgery.
On the third day after modeling, the animals were subjected to bioluminescence detection by infrared data imaging, randomly grouped according to the fluorescence values, and administered according to the following experimental protocol, see Table 5.
To observe the inhibitory effect of embodiment 1 on tumor growth and metastasis, the experimental endpoint was designed to be 30-35 days after administration, with reference to historical data of the model. At the end of the experiment, the in situ tumor and various organ tissues were dissected, the tumor was weighed, and the fluorescence intensity of each organ was detected by IVIS fluorescence. Growth inhibition of orthotopic tumors can be compared by the weight of the in situ tumor in the experimental endpoint, and the inhibition curve is generated from the tumor volume measurement data twice a week during the experiment. The inhibition of tumor metastasis was determined by the presence or absence of fluorescence detection of each organ and the analysis of relative fluorescence intensity.
At the end of the experiment, the tumor weight will be detected and the relative tumor growth rate T/C (%) will be calculated; the tumor volume is calculated as: V=0.5a×b^2, and a and b represent the long and short diameters of the tumor, respectively. At the same time, the lung, liver, spleen, kidney, intestine and left upper limb were stripped, and fluorescence was detected to determine whether there was metastasis and metastasis intensity and ratio.
The antitumor effect of the compound was evaluated by the tumor growth inhibition rate TGI (%) or the relative tumor growth rate T/C (%).
Calculation of TGI (%): TGI (%)=[(1−mean tumor volume at the end of administration of a treatment group−mean tumor volume at the start of administration of the treatment group))/(mean tumor volume at the end of treatment of the solvent control group−mean tumor volume at the start of administration of the solvent control group)]×100%.
Relative tumor growth rate T/C (%) calculation: T/C(%)=Tt(treatment group)/Ct(control group)×100%, Tt is the average tumor volume at a certain measurement, and Ct takes the same day data.
The experimental results were statistically analyzed using one-way ANOVA. If there is a significant difference in F values, multiple comparisons should be made after ANOVA analysis. All data in this experiment were analyzed using SPSS 17.0. A significant difference was considered at p<0.05.
At the end of the experiment, each organ tissue was peeled off, and fluorescence imaging and fluorescence intensity value recording were measured by IVIS for 40 sec exposure within 8 min. The fluorescence imaging results of the tested tissues of the 10 animals excised by the maximum and minimum values are shown in Table 6.
According to the experimental end point, the fluorescence intensity of each group of organs was normalized by the control group, and the relative fluorescence intensity ratio of each group of organs was obtained. The ratio reflects the level of metastatic intensity on the corresponding organs.

[3] = animals with metastasis/animals in group
[4] = average organ fluorescence relative to control group

Q: For `Cc1cccc(-c2nn3c(c2-c2ccc4ncnn4c2/C=C/C(N)=O)CCC3)n1` [Embodiment 1], which IC50 [1] is on record?
A: 0.5 to 2 µM

Q: And the “Inhibition of metastasis of 4T1 (conclusion)” value [2]?
A: significantly inhibited the metastasis of 4T1 in liver, spleen, kidney and intestine

Q: What about the “Metastasis rate, intestine” value [2, 3] of the same compound?
A: 60%

Q: And the “Metastasis rate, kidney” value [2, 3]?
A: 20%

Q: What about the “Metastasis rate, liver” value [2, 3] of the same compound?
A: 50%

Q: And the “Metastasis rate, lung” value [2, 3]?
A: 100%

Q: And the “Metastasis rate, spleen” value [2, 3]?
A: 0%

Q: What about the “Metastasis rate, upper limb” value [2, 3] of the same compound?
A: 90%

Q: What about the “Metastasis level, intestine” value [2, 4] of the same compound?
A: 1%

Q: And the “Metastasis level, kidney” value [2, 4]?
A: 67%

Q: What about the “Metastasis level, liver” value [2, 4] of the same compound?
A: 10%

Q: And the “Metastasis level, lung” value [2, 4]?
A: 9%

Q: What about the “Metastasis level, spleen” value [2, 4] of the same compound?
A: 0%

Q: What about the “Metastasis level, upper limb” value [2, 4] of the same compound?
A: 12%
